Residue numbers refer to the chain shown, from its start.
Experiments:
Type in all cases: cell-based
[1] = target: T1, α-Gal A mutant form Q330P (Homo sapiens, UniProt P06280, Q330P); assay: α-Gal A activity in lysates of transfected HEK-293 cells, Q330P
T1 construct: expressed in transfected cells; host or cells: HEK-293
T1 sequence (P06280 32-429 Q330P): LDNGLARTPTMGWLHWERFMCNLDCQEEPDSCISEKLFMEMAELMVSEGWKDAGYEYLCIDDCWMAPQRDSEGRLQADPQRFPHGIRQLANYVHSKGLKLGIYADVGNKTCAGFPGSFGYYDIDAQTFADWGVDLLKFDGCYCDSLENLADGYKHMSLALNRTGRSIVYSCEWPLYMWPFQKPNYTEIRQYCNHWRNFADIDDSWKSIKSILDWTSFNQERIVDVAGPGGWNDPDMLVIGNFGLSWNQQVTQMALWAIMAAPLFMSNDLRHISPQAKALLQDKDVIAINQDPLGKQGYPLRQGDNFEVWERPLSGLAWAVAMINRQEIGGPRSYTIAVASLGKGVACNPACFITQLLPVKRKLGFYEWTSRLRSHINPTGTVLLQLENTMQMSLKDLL
Experimental: (§1) Baseline and 10 μM migalastat α-Gal A activity: Differences in the α-Gal A activity between lysates incubated in the absence and presence of 10 μM migalastat were determined using a one-tailed, Mann Whitney U test; an increase at 10 μM migalastat with a p<0.05 was considered significant.
(§2) 10 μM migalastat α-Gal A activity (% WT)=(α-Gal A activity in mutant transfected cell lysates incubated with 10 μM migalastat÷α-Gal A activity in wild-type transfected cell lysates without migalastat)*100.
(§3) Absolute increase (% WT)=is the 10 μM migalastat α-Gal A activity (% WT) minus the baseline α-Gal A activity (% WT).
(§4) Relative increase is the 10 μM migalastat α-Gal A activity in mutant transfected cell lysates÷baseline α-Gal A activity in mutant transfected cell lysates incubated without migalastat.

[2] = target: T2, α-Gal A mutant form A257V (Homo sapiens, UniProt P06280, A257V); assay: α-Gal A activity in lysates of transfected HEK-293 cells, A257V
T2 construct: expressed in transfected cells; host or cells: HEK-293
T2 sequence (P06280 32-429 A257V): T1 sequence (P06280 32-429 Q330P) with A226V, P299Q
Experimental: as §1, §2, §3, §4

α-Gal A mutant form D33H = target: T3, α-Gal A mutant form D33H (Homo sapiens, UniProt P06280, D33H); assay: α-Gal A activity in lysates of transfected HEK-293 cells, D33H
T3 construct: expressed in transfected cells; host or cells: HEK-293
T3 sequence (P06280 32-429 D33H): T1 sequence (P06280 32-429 Q330P) with D2H, P299Q
Experimental: as §1, §2, §3, §4

[3] = target: T4, α-Gal A mutant form K391E (Homo sapiens, UniProt P06280, K391E); assay: α-Gal A activity in lysates of transfected HEK-293 cells, K391E
T4 construct: expressed in transfected cells; host or cells: HEK-293
T4 sequence (P06280 32-429 K391E): T1 sequence (P06280 32-429 Q330P) with P299Q, K360E
Experimental: as §1, §2, §3, §4

[4] = target: T5, α-Gal A mutant form N408Y (Homo sapiens, UniProt P06280, N408Y); assay: α-Gal A activity in lysates of transfected HEK-293 cells, N408Y
T5 construct: expressed in transfected cells; host or cells: HEK-293
T5 sequence (P06280 32-429 N408Y): T1 sequence (P06280 32-429 Q330P) with P299Q, N377Y
Experimental: as §1, §2, §3, §4

[5] = 10 μM migalastat minus baseline
[6] = 10 μM migalastat ÷ baseline activity
[7] = HEK-293 lysates, 10 μM migalastat, 5 days, mean ± SEM

SMILES: OC[C@H]1NC[C@H](O)[C@@H](O)[C@H]1O [migalastat, (2R,3S,4R,5S)-2-(hydroxymethyl) piperdine-3,4,5-triol]
- Absolute increase (% WT) [1, 5]: 24.4 % WT
- Relative increase [1, 6]: 2.21
- 10 μM migalastat α-Gal A activity [1, 7]: 12375 ± 664 nmol/mg/h
- 10 μM migalastat α-Gal A activity (% WT) [1, 7]: 45.8 ± 1.9 % WT
- Absolute increase (% WT) [2, 5]: 44.4 % WT
- Relative increase [2, 6]: 1.85
- 10 μM migalastat α-Gal A activity [2, 7]: 30313 ± 1981 nmol/mg/h
- 10 μM migalastat α-Gal A activity (% WT) [2, 7]: 99.9 ± 4.6 % WT
- Absolute increase (% WT) (α-Gal A mutant form D33H; [5]): 32.7 % WT
- Relative increase (α-Gal A mutant form D33H; [6]): 1.93
- 10 nM migalastat α-Gal A activity (α-Gal A mutant form D33H; HEK-293 lysates, 10 nM migalastat as printed, 5 days, mean ± SEM): 24908 ± 1775 nmol/mg/h
- 10 μM migalastat α-Gal A activity (% WT) (α-Gal A mutant form D33H; [7]): 68.8 ± 4.3 % WT
- Absolute increase (% WT) [3, 5]: 20.0 % WT
- Relative increase [3, 6]: 2.03
- 10 μM migalastat α-Gal A activity [3, 7]: 15979 ± 1367 nmol/mg/h
- 10 μM migalastat α-Gal A activity (% WT) [3, 7]: 40.4 ± 2.9 % WT
- Absolute increase (% WT) [4, 5]: 44.6 % WT
- Relative increase [4, 6]: 2.09
- 10 μM migalastat α-Gal A activity [4, 7]: 23273 ± 2965 nmol/mg/h
- 10 μM migalastat α-Gal A activity (% WT) [4, 7]: 85.5 ± 7.7 % WT

Reference: patent US12594268B2, “Methods of treating Fabry disease in patients having a mutation in the GLA gene” (Amicus Therapeutics, Inc., priority 2018, dated 2026)
